Data set [1] concerns the target T1, PtSIT1 (Phaeodactylum tricornutum, UniProt B7T1F4).
T1 construct: gene SIT1
In words: biochemical.

In data set [2] the target is T2, PtSIT1 (Phaeodactylum tricornutum, UniProt B7T1F4, Q321A).
T2 construct: gene SIT1
In words: biochemical.

Data set [3] has as its target T3, PtSIT1 (Phaeodactylum tricornutum, UniProt B7T1F4, Q104A).
T3 construct: gene SIT1
In words: biochemical.

Substrate in the data set “purified protein”: O[Si](O)(O)O
In words: purified protein. The following applies: inward Na+ gradient (150 mM NaCl outside), valinomycin, 50 mM Tris, 150 mM KCl inside, pH 7.4, error s.e.m. of fit.

The term Kd denotes a measure of binding affinity in units of concentration. Read a low Kd as a tighter complex. What is called Km is the substrate concentration at which the rate is half of its maximum.

T3 sequence (B7T1F4 1-512 Q104A): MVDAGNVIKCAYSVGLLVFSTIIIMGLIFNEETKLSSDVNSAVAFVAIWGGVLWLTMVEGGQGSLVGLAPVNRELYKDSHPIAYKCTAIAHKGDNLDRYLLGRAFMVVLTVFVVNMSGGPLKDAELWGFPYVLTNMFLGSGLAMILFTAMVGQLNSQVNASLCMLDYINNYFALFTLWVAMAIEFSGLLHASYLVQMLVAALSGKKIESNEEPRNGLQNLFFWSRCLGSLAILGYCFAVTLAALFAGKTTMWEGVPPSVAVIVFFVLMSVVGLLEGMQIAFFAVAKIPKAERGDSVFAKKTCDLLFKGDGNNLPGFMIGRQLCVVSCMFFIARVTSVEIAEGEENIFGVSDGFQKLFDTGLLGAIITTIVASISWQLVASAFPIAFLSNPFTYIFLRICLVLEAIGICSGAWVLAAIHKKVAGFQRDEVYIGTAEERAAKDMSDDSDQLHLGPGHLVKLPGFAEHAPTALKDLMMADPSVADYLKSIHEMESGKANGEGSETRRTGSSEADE
T2 sequence (B7T1F4 1-512 Q321A): as the sequence (B7T1F4 1-512 Q104A) above, with A104Q, Q321A counted along it

For the molecule `O[Si](O)(O)O` [silicic acid], the Kd stood at 2.9 ± 2.3 µM on PtSIT1 [1], 13.3 ± 8 µM on PtSIT1 [2] and 25.5 ± 11 µM on PtSIT1 [3].

B1: PtSIT1 (Phaeodactylum tricornutum) (protein)
chain: MVDAGNVIKCAYSVGLLVFSTIIIMGLIFNEETKLSSDVNSAVAFVAIWGGVLWLTMVEGGQGSLVGLAPVNRELYKDSHPIAYKCTAIAHKGDNLDRYLLGRQFMVVLTVFVVNMSGGPLKDAELWGFPYVLTNMFLGSGLAMILFTAMVGQLNSQVNASLCMLDYINNYFALFTLWVAMAIEFSGLLHASYLVQMLVAALSGKKIESNEEPRNGLQNLFFWSRCLGSLAILGYCFAVTLAALFAGKTTMWEGVPPSVAVIVFFVLMSVVGLLEGMQIAFFAVAKIPKAERGDSVFAKKTCDLLFKGDGNNLPGFMIGRQLCVVSCMFFIARVTSVEIAEGEENIFGVSDGFQKLFDTGLLGAIITTIVASISWQLVASAFPIAFLSNPFTYIFLRICLVLEAIGICSGAWVLAAIHKKVAGFQRDEVYIGTAEERAAKDMSDDSDQLHLGPGHLVKLPGFAEHAPTALKDLMMADPSVADYLKSIHEMESGKANGEGSETRRTGSSEADE
Consider B1, for which the Km in the data set “purified protein” amounted to 19.1 ± 4.5 µM.
